pIC50: −log10 of the molar value. Like-named read-outs stand apart in the source and are kept apart here.
Experiments:
[1] = system: GM-CSF induced STAT5 phosphorylation mediated by the JAK2/JAK2 homdimeric complex; assay: GM-CSF Induced pSTAT5 in Human PBMC
From the text: Human PBMC are isolated from buffy coat and are stored frozen for assays as needed.

[2] = system: IL-12 induced STAT4 phophorylation mediated by Tyk2/JAK2 (heterodimeric complex); assay: IL-12 Induced pSTAT4 in Human PBMC; assay type: cell-based; conditions: 1.7 ng/mL IL-12
From the text: The IL-12 Induced pSTAT4 assay evaluates the inhibition of IL-12 induced STAT4 phophorylation mediated by Tyk2/JAK2 (heterodimeric complex).

[3] = Homo sapiens, PBMC, 20 min, read-out: PBMC_GMCSF_pSTAT5 IC50, human PBMC, GM-CSF 5 ng/mL for 20 minutes, pSTAT5
[4] = Homo sapiens, PBMC, 20 min, read-out: PBMC_GMCSF_pSTAT5 IC50
[5] = read-out: PBMC_GMCSF_pSTAT5 IC50, human PBMC, GM-CSF 5 ng/mL for 20 minutes, pSTAT5

| pIC50 [1, 3] | pIC50 [2] | pIC50 [1, 5] | SMILES | pIC50 [1, 4] |
| --- | --- | --- | --- | --- |
| < 4.90 | > 7.00 | – | CNc1cc(Nc2cccn(-c3cnn(CC4CCOCC4)c3)c2=O)nc2c(C(=O)N[C@H]3C[C@H]3F)cnn12 [I-407] | – |
| < 4.30 | > 7.00 | – | CNc1cc(Nc2cccn(C[C@@H]3CCCCO3)c2=O)nc2c(C(=O)NC3CC3)cnn12 [I-413] | – |
| < 4.30 | > 7.00 | – | CNc1cc(Nc2cccn(C3CCC4(CC3)OCCO4)c2=O)nc2c(C(=O)N[C@@H]3C[C@@H]3F)cnn12 [I-415, N-((1R,2S)-2-fluorocyclopropyl)-7-(methylamino)-5-((2-oxo-1-(1,4-dioxaspiro 14.51 decan-8-yl)-1,2-dihydropyridin-3-yl)amino)pyrazolo[1,5-a]pyrimidine-3-carboxamide] | – |
| < 4.30 | > 7.00 | – | CNc1cc(Nc2cccn(C[C@@H]3CCCCO3)c2=O)nc2c(C(=O)N[C@@H]3C[C@@H]3F)cnn12 [I-428] | – |
| < 4.90 | > 7.00 | – | CNc1cc(Nc2cccn([C@@H]3CCCOC3)c2=O)nc2c(C(=O)N[C@@H]3C[C@@H]3F)cnn12 [I-474] | – |
| < 4.30 | > 7.00 | – | CNc1cc(Nc2cccc(C3CCCOC3)n2)nc2c(C(=O)N[C@@H]3C[C@@H]3F)cnn12 (some centres unmarked) [I-522] | – |
| < 4.30 | > 7.00 | – | CNc1cc(Nc2cccn([C@H]3CC[C@H](OC)CC3)c2=O)nc2c(C(=O)N[C@H]3CC[C@H]3O)cnn12 [I-539] | – |
| < 4.90 | > 7.00 | – | CNc1cc(Nc2cccn([C@H]3CC[C@H](OC)CC3)c2=O)nc2c(C(=O)N[C@H]3CC[C@@H]3O)cnn12 [I-540] | – |
| < 5.60 | > 7.00 | – | CNc1cc(Nc2cccn([C@H]3CC[C@H](OC)CC3)c2=O)nc2c(C(=O)NCC(C)(C)CO)cnn12 [I-544] | – |
| < 5.60 | 6.30 to 7.00 | – | CNc1cc(Nc2cccn([C@H]3CC[C@H](OC)CC3)c2=O)nc2c(C(=O)NCC3(CO)CC3)cnn12 [I-545] | – |
| < 5.60 | > 7.00 | – | CNc1cc(Nc2cccn(C3CC4(COC4)C3)c2=O)nc2c(C(=O)N[C@@H]3C[C@@H]3F)cnn12 [I-551, N-((1R,2S)-2-fluorocyclopropyl)-7-(methylamino)-5-((2-oxo-1-(2-oxaspiro[3.3]heptan-6-yl)-1,2-dihydropyridin-3-yl)amino)pyrazolo[1,5-a]pyrimidine-3-carboxamide] | – |
| < 4.30 | > 7.00 | – | CNc1cc(Nc2cc(F)cn([C@H]3CCCOC3)c2=O)nc2c(C(=O)N[C@H]3C[C@H]3F)cnn12 [I-559] | – |
| < 5.60 | > 7.00 | – | CNc1cc(Nc2cccn([C@H]3CC[C@H](OC)CC3)c2=O)nc2c(C(=O)N[C@@H]3CC[C@@H]3O)cnn12 [I-560] | – |
| < 4.30 | > 7.00 | – | CNc1cc(Nc2cccc([C@@H]3CCCOC3)n2)nc2c(C(=O)N[C@H]3C[C@H]3F)cnn12 [I-562] | – |
| < 4.30 | > 7.00 | – | CNc1cc(Nc2cccc([C@H]3CCCOC3)n2)nc2c(C(=O)N[C@H]3C[C@H]3F)cnn12 [I-563] | – |
| < 4.30 | > 7.00 | – | CNc1cc(Nc2cccn(C3CCN(CCF)CC3)c2=O)nc2c(C(=O)N[C@H]3C[C@H]3F)cnn12 [I-570] | – |
| < 4.90 | > 7.00 | – | CNc1cc(Nc2cccc(N3CCOCC3)n2)nc2c(C(=O)N[C@H]3C[C@H]3F)cnn12 [I-590] | – |
| < 4.90 | > 7.00 | – | CNc1cc(Nc2cccc3ocnc23)nc2c(C(=O)N[C@H]3C[C@H]3F)cnn12 [I-592] | – |
| < 4.30 | > 7.00 | – | CNc1cc(Nc2cccn(-c3cn(C)nc3F)c2=O)nc2c(C(=O)N[C@H]3C[C@H]3F)cnn12 [I-607] | – |
| < 4.30 | > 7.00 | – | CNc1cc(Nc2cccn([C@@H]3CCC[C@H](OC)C3)c2=O)nc2c(C(=O)NC3CC3)cnn12 [I-621] | – |
| < 4.30 | > 7.00 | – | CNc1cc(Nc2cccn([C@H]3CC[C@H](OC)CC3)c2=O)nc2c(C(=O)N[C@@H]3CC[C@H]3O)cnn12 [I-635] | – |
| – | > 7.00 | < 4.30 | CNc1cc(Nc2cccn([C@H]3CC[C@](C)(OC)CC3)c2=O)nc2c(C(=O)N[C@@H]3CC[C@@H]3O)cnn12 [I-670, N-(2-hydroxycyclobutyl)-5-((1-((1R,4S)-4-methoxy-4-methylcyclohexyl)-2-oxo-1,2-dihydropyridin-3-yl)amino)-7-(methylamino)pyrazolo[1,5-a]pyrimidine-3-carboxamide] | – |
| < 4.30 | > 7.00 | – | CNc1cc(Nc2cccn(-c3ncc(OC)cc3F)c2=O)nc2c(C(=O)N[C@H]3C[C@H]3F)cnn12 [I-673] | – |
| – | > 7.00 | < 5.60 | CNc1cc(Nc2cccn(-c3ncc(C)s3)c2=O)nc2c(C(=O)N[C@@H]3CC[C@@H]3O)cnn12 [I-677] | – |
| < 4.90 | > 7.00 | – | CNc1cc(Nc2cccn(-c3ccccn3)c2=O)nc2c(C(=O)N[C@H]3C[C@H]3F)cnn12 [I-681] | – |

More lines, now with the values behind:

| SMILES | pIC50 [1, 3] | pIC50 [2] | pIC50 [1, 5] | pIC50 [1, 4] |
| --- | --- | --- | --- | --- |
| CCONC(=O)c1cnn2c(NC)cc(Nc3cccnc3OC)nc12 [I-409, N-ethoxy-5-((2-methoxypyridin-3-yl)amino)-7-(methylamino)pyrazolo[1,5-a]pyrimidine-3-carboxamide] | < 4.90 | > 7.00 | – | – |
| [2H]C([2H])([2H])Oc1ncccc1Nc1cc(NC)n2ncc(C(=O)N[C@@H]3CC[C@H]3O)c2n1 [I-410] | < 4.90 | > 7.00 | – | – |
| CNc1cc(Nc2cccnc2OC)nc2c(C(=O)N[C@@H]3CCC[C@H]3O)cnn12 [I-423, N-((1R,2R)-2-hydroxycyclopentyl)-5-((2-methoxypyridin-3-yl)amino)-7-(methylamino)pyrazolo[1,5-a]pyrimidine-3-carboxamide] | < 4.30 | > 7.00 | – | – |
| CNc1cc(Nc2cccnc2OC)nc2c(C(=O)NCC3(CO)CC3)cnn12 [I-425] | – | > 7.00 | – | < 4.30 |
| CNc1cc(Nc2cccnc2OC2CC2)nc2c(C(=O)NCC3(CO)CC3)cnn12 [I-426] | < 4.30 | > 7.00 | – | – |
| CNc1cc(Nc2cccnc2OC)nc2c(C(=O)N[C@H]3CC[C@H]3O)cnn12 [I-429] | < 4.30 | > 7.00 | – | – |
| CNc1cc(Nc2cccnc2OC2CC2)nc2c(C(=O)NCC(C)CO)cnn12 (centres unmarked) [I-435] | < 4.30 | 6.30 to 7.00 | – | – |
| CNc1cc(Nc2cccnc2OC)nc2c(C(=O)N[C@H]3C[C@@H]3O)cnn12 [I-438, N-((1S,2S)-2-hydroxycyclopropyl)-5-((2-methoxypyridin-3-yl)amino)-7-(methylamino)pyrazolo[1,5-a]pyrimidine-3-carboxamide] | < 4.30 | > 7.00 | – | – |
| CNc1cc(Nc2cccnc2OC)nc2c(C(=O)NC[C@H](C)CO)cnn12 [I-483] | < 4.30 | > 7.00 | – | – |
| [2H]C([2H])([2H])Oc1ncccc1Nc1cc(NC)n2ncc(C(=O)N[C@@H]3CCC[C@@H](O)C3)c2n1 [I-499] | < 4.30 | > 7.00 | – | – |
| [2H]C([2H])([2H])Oc1ncccc1Nc1cc(NC)n2ncc(C(=O)N[C@H]3CC[C@H](O)C3)c2n1 [I-500] | < 4.30 | > 7.00 | – | – |
| CNc1cc(Nc2cccn(-c3ncccc3F)c2=O)nc2c(C(=O)NCC(C)(C)CO)cnn12 [I-510] | < 4.30 | > 7.00 | – | – |
| CNc1cc(Nc2cccnc2OC2CC2)nc2c(C(=O)N[C@H]3COC[C@H]3O)cnn12 [I-547] | < 4.30 | 6.30 to 7.00 | – | – |
| CNc1cc(-c2cn(C(C)C)c3ncccc23)nc2c(C(=O)N[C@@H]3CC[C@@H]3O)cnn12 [I-578] | < 4.30 | > 7.00 | – | – |
| CNc1cc(-c2cn(CCN3CCCCC3)c3ncccc23)nc2c(C(=O)N[C@H]3C[C@H]3F)cnn12 [I-585] | < 4.90 | > 7.00 | – | – |
| CNc1cc(Nc2cccc3ocnc23)nc2c(C(=O)NC3CC3)cnn12 [I-591] | < 4.90 | > 7.00 | – | – |
| CNc1cc(Nc2cccc([C@@H]3CCCOC3)n2)nc2c(C(=O)N[C@H]3CC[C@@H]3O)cnn12 [I-603] | < 5.60 | > 7.00 | – | – |
| CNc1cc(Nc2cccn(-c3cn(C)nc3F)c2=O)nc2c(C(=O)NC3CC3)cnn12 [I-606] | < 4.90 | 6.30 to 7.00 | – | – |
| CNc1cc(Nc2cccnc2OC)nc2c(C(=O)NOC(C)(C)C)cnn12 [I-612, N-(tert-butoxy)-5-((2-methoxypyridin-3-yl)amino)-7-(methylamino) pyrazolo[1,5-a]pyrimidine-3-carboxamide] | – | […] | – | < 4.30 |
| CNc1cc(-c2cn(C(C)C)c3ncccc23)nc2c(C(=O)N[C@H]3C[C@H](O)C3)cnn12 [I-630, N-((1r,3r)-3-hydroxycyclobutyl)-5-(1-isopropyl-1H-pyrrolo[2,3-b]pyridin-3-yl)-7-(methylamino)pyrazolo[1,5-a]pyrimidine-3-carboxamide] | < 5.60 | > 7.00 | – | – |
| CNc1cc(-c2cn(C(C)C)c3ncccc23)nc2c(C(=O)N[C@H]3CC[C@H]3O)cnn12 [I-637] | < 4.90 | > 7.00 | – | – |
| CNc1cc(-c2cn(C(C)C)c3ncccc23)nc2c(C(=O)N[C@H]3CC[C@@H]3O)cnn12 [I-639] | – | > 7.00 | < 4.90 | – |
| CNc1cc(-c2cn(C(C)C)c3ncccc23)nc2c(C(=O)N[C@@H]3CC[C@H]3O)cnn12 [I-640] | < 4.90 | > 7.00 | – | – |
| CNc1cc(Nc2cccc3ocnc23)nc2c(C(=O)N[C@@H]3CC[C@@H]3O)cnn12 [I-661] | – | > 7.00 | < 4.90 | – |
| CNc1cc(Nc2cccc([C@@H]3CCCOC3)n2)nc2c(C(=O)N[C@@H]3CC[C@H]3O)cnn12 [I-665] | < 5.60 | > 7.00 | – | – |
| CNc1cc(Nc2cccc([C@H]3CCCOC3)n2)nc2c(C(=O)N[C@@H]3CC[C@H]3O)cnn12 [I-667] | < 4.90 | > 7.00 | – | – |
| CNc1cc(Nc2cccn(-c3ccccn3)c2=O)nc2c(C(=O)NC3CC3)cnn12 [I-680] | < 4.90 | > 7.00 | – | – |

— US10577373B2, “TYK2 inhibitors and uses thereof” (Nimbus Lakshmi, Inc., priority 2017, dated 2020)
